Consider nine compounds from patent publication US10004701B2, “Methods and compositions for treating infection” (UNIVERSITY OF ROCHESTER, priority 2012, dated 2018).

Holding throughout (experiment): AK assay 384-well format, Prestwick library screening
For assay [1], the system named is E. cloacae. The class given is cell-based, Enterobacter cloacae. The settings on record: 50 μM final drug concentration; for fold induction at 50 µM: Enterobacter cloacae, 3 h.
In assay [2] the test system is P. aeruginosa. The class given is cell-based, Pseudomonas aeruginosa. Particulars: 50 μM final drug concentration; for fold induction at 50 µM: Pseudomonas aeruginosa, 3 h.
For assay [3], the system named is S. aureus strain USA300-0114. The class given is cell-based, Staphylococcus aureus. Particulars: 50 μM final drug concentration; for fold induction at 50 µM: Staphylococcus aureus, USA300, 3 h.
Assay [4] has as its system E. coli. The class given is cell-based, Escherichia coli. The settings on record: 50 μM final drug concentration; for fold induction at 50 µM: Escherichia coli, 3 h.
Assay [5] has as its system E. faecium. The class given is cell-based, Enterococcus faecium. Particulars: 50 μM final drug concentration; for fold induction at 50 µM: Enterococcus faecium, 3 h.
Assay [6] relates to A. baumannii strain 98-37-09. The assay is classed as cell-based, Acinetobacter baumannii. The settings on record: 50 μM final drug concentration; for fold induction at 50 µM: Acinetobacter baumannii, 983709, 3 h.
Assay [7] relates to K. pneumoniae. The assay is classed as cell-based, Klebsiella pneumoniae. The settings on record: 50 μM final drug concentration; for fold induction at 50 µM: Klebsiella pneumoniae, 3 h.
Where [8] appears, read: planktonic, cutoff for positive-scoring molecules 3-fold increase, read-out: AK-based Prestwick Library Screening Results, E. cloacae (fold increase in extracellular AK activity).
The mark [9] stands for this setting: planktonic, cutoff for positive-scoring molecules 3-fold increase, read-out: AK-based Prestwick Library Screening Results, P. aeruginosa (fold increase in extracellular AK activity).
[10] abbreviates: planktonic, cutoff for positive-scoring molecules 3-fold increase, read-out: AK-based Prestwick Library Screening Results, S. aureus (fold increase in extracellular AK activity).
The mark [11] stands for this setting: planktonic, cutoff for positive-scoring molecules 3-fold increase, read-out: AK-based Prestwick Library Screening Results, E. coli (fold increase in extracellular AK activity).
The mark [12] stands for this setting: planktonic, cutoff for positive-scoring molecules 3-fold increase, read-out: AK-based Prestwick Library Screening Results, E. faecium (fold increase in extracellular AK activity).
[13] abbreviates: planktonic, cutoff for positive-scoring molecules 3-fold increase, read-out: AK-based Prestwick Library Screening Results, A. baumannii (fold increase in extracellular AK activity).
Where [14] appears, read: planktonic, cutoff for positive-scoring molecules 3-fold increase, read-out: AK-based Prestwick Library Screening Results, K. pneumoniae (fold increase in extracellular AK activity).
Setting [15] is: 384-well format, cutoff for positive-scoring molecules 3-fold increase, read-out: AK-based Prestwick Library Screening Results, E. cloacae (increase in extracellular AK activity).
Where [16] appears, read: 384-well format, cutoff for positive-scoring molecules 3-fold increase, read-out: AK-based Prestwick Library Screening Results, P. aeruginosa (increase in extracellular AK activity).
The mark [17] stands for this setting: 384-well format, cutoff for positive-scoring molecules 3-fold increase, read-out: AK-based Prestwick Library Screening Results, S. aureus (increase in extracellular AK activity).
Setting [18] is: 384-well format, cutoff for positive-scoring molecules 3-fold increase, read-out: AK-based Prestwick Library Screening Results, E. coli (increase in extracellular AK activity).
Setting [19] is: 384-well format, cutoff for positive-scoring molecules 3-fold increase, read-out: AK-based Prestwick Library Screening Results, E. faecium (increase in extracellular AK activity).
[20] abbreviates: 384-well format, cutoff for positive-scoring molecules 3-fold increase, read-out: AK-based Prestwick Library Screening Results, A. baumannii (increase in extracellular AK activity).
Where [21] appears, read: 384-well format, cutoff for positive-scoring molecules 3-fold increase, read-out: AK-based Prestwick Library Screening Results, K. pneumoniae (increase in extracellular AK activity).

Structures can show the parent of a compound that is named as a salt. Where two headings read alike, the source gives them in different places.

For the compound `C[n+]1cccc(C(=O)[O-])c1` [Trigonelline], the fold induction at 50 µM in assay [1] (planktonic E. cloacae, cutoff for positive-scoring molecules 3-fold increase, read-out: AK-based Prestwick Library Screening Results, E. cloacae (increase in extracellular AK activity)) stood at 1.2; in assay [2] (planktonic P. aeruginosa, cutoff for positive-scoring molecules 3-fold increase, read-out: AK-based Prestwick Library Screening Results, P. aeruginosa (increase in extracellular AK activity)) it was 0.8; in assay [3] (planktonic S. aureus, cutoff for positive-scoring molecules 3-fold increase, read-out: AK-based Prestwick Library Screening Results, S. aureus (increase in extracellular AK activity)), 0.8; in assay [4] (planktonic E. coli, cutoff for positive-scoring molecules 3-fold increase, read-out: AK-based Prestwick Library Screening Results, E. coli (increase in extracellular AK activity)) it was 0.9; in assay [5] (planktonic E. faecium, cutoff for positive-scoring molecules 3-fold increase, read-out: AK-based Prestwick Library Screening Results, E. faecium (increase in extracellular AK activity)), 0.9; in assay [6] (planktonic A. baumannii, cutoff for positive-scoring molecules 3-fold increase, read-out: AK-based Prestwick Library Screening Results, A. baumannii (increase in extracellular AK activity)), 0.9. For the same compound, the fold induction at 50 µM in assay [7] (planktonic K. pneumoniae, cutoff for positive-scoring molecules 3-fold increase, read-out: AK-based Prestwick Library Screening Results, K. pneumoniae (increase in extracellular AK activity)) came to 0.7.

With `Oc1c(I)cc(Cl)c2cccnc12` [Clioquinol], the fold induction at 50 µM in assay [1] (setting [8]) came out at 0.5; in assay [2] (setting [9]), 0.4; in assay [3] (setting [10]), 0.2; in assay [4] (setting [11]) it was 0.5; in assay [5] (setting [12]) it was 0.9; in assay [6] (setting [13]), 1.1. Further, the fold induction at 50 µM in assay [7] (setting [14]) turned out to be 0.6.

Turning to `NC(Cn1ccc(=O)c(O)c1)C(=O)O` (stereo not drawn) [Mimosine], the fold induction at 50 µM in assay [1] (planktonic, cutoff for positive 3-fold increase, read-out: AK-based Prestwick Library Screening Results, E. cloacae (fold increase in extracellular AK activity)) is 1.5; in assay [2] (planktonic, cutoff for positive 3-fold increase, read-out: AK-based Prestwick Library Screening Results, P. aeruginosa (fold increase in extracellular AK activity)) it was 1.1; in assay [3] (planktonic, cutoff for positive 3-fold increase, read-out: AK-based Prestwick Library Screening Results, S. aureus (fold increase in extracellular AK activity)), 1.4; in assay [4] (planktonic, cutoff for positive 3-fold increase, read-out: AK-based Prestwick Library Screening Results, E. coli (fold increase in extracellular AK activity)), 1; in assay [5] (planktonic, cutoff for positive 3-fold increase, read-out: AK-based Prestwick Library Screening Results, E. faecium (fold increase in extracellular AK activity)), 1; in assay [6] (planktonic, cutoff for positive 3-fold increase, read-out: AK-based Prestwick Library Screening Results, A. baumannii (fold increase in extracellular AK activity)), 0.9. In addition, the fold induction at 50 µM in assay [7] (planktonic, cutoff for positive 3-fold increase, read-out: AK-based Prestwick Library Screening Results, K. pneumoniae (fold increase in extracellular AK activity)) turned out to be 0.9.

For the compound `O=C(O)COC(=O)Cc1ccccc1Nc1c(Cl)cccc1Cl` [Aceclofenac], the fold induction at 50 µM in assay [1] (setting [15]) stood at 0.8; in assay [2] (setting [16]) it was 0.8; in assay [3] (setting [17]), 0.7; in assay [4] (setting [18]), 0.7; in assay [5] (setting [19]) it was 1; in assay [6] (setting [20]), 0.7. The fold induction at 50 µM in assay [7] (setting [21]) was determined as 0.6.

Regarding `Oc1ccc(OCc2ccccc2)cc1` [Monobenzone], the fold induction at 50 µM was found to be 1.4 in assay [1] (setting [8]); 0.7 in assay [2] (setting [9]); 0.6 in assay [3] (setting [10]); 0.7 in assay [4] (setting [11]); 0.6 in assay [5] (setting [12]); 0.5 in assay [6] (setting [13]). Also, in assay [7] (setting [14]), the fold induction at 50 µM is 0.5.

Take `CCCOc1ccc(C(=O)OCCN(CC)CC)cc1N` [Proparacaine hydrochloride]: the fold induction at 50 µM in assay [1] (cutoff for positive-scoring molecules 3-fold increase, read-out: AK-based Prestwick Library Screening Results, E. cloacae (fold increase in extracellular AK activity)) was 1.2; in assay [2] (cutoff for positive-scoring molecules 3-fold increase, read-out: AK-based Prestwick Library Screening Results, P. aeruginosa (fold increase in extracellular AK activity)), 1.1; in assay [3] (cutoff for positive-scoring molecules 3-fold increase, read-out: AK-based Prestwick Library Screening Results, S. aureus (fold increase in extracellular AK activity)), 1.2; in assay [4] (cutoff for positive-scoring molecules 3-fold increase, read-out: AK-based Prestwick Library Screening Results, E. coli (fold increase in extracellular AK activity)) it was 1.3; in assay [5] (cutoff for positive-scoring molecules 3-fold increase, read-out: AK-based Prestwick Library Screening Results, E. faecium (fold increase in extracellular AK activity)) it was 1; in assay [6] (cutoff for positive-scoring molecules 3-fold increase, read-out: AK-based Prestwick Library Screening Results, A. baumannii (fold increase in extracellular AK activity)) it was 1.4. Further, the fold induction at 50 µM in assay [7] (cutoff for positive-scoring molecules 3-fold increase, read-out: AK-based Prestwick Library Screening Results, K. pneumoniae (fold increase in extracellular AK activity)) turned out to be 1.1.

As to `CC(=O)CC(c1ccc([N+](=O)[O-])cc1)c1c(O)c2ccccc2oc1=O` (stereo not drawn) [Acenocoumarol], the fold induction at 50 µM was determined as 0.9 in assay [1] (setting [15]); 0.9 in assay [2] (setting [16]); 0.8 in assay [3] (setting [17]); 0.9 in assay [4] (setting [18]); 1 in assay [5] (setting [19]); 0.8 in assay [6] (setting [20]). For the same compound, the fold induction at 50 µM in assay [7] (setting [21]) was 0.7.

In the case of `CC1CCC2C(C)C3C(CC4C5CC=C6CC(OC7OC(CO)C(O)C(OC8OC(CO)C(O)C(O)C8O)C7OC7OC(C)C(O)C(O)C7O)CCC6(C)C5CCC43C)N2C1` (stereo not drawn) [Solanine alpha], the “AK-based Prestwick Library Screening Results, E. cloacae (fold increase in extracellular AK activity)” value in assay [1] (planktonic, […]) is given as 1.7. Further, in assay [2] (planktonic, […]), the “AK-based Prestwick Library Screening Results, P. aeruginosa (fold increase in extracellular AK activity)” value was 1.2. In addition, the “AK-based Prestwick Library Screening Results, S. aureus (fold increase in extracellular AK activity)” value in assay [3] (planktonic, […]) is reported as 1.2. Also, in assay [4] (planktonic, […]), the “AK-based Prestwick Library Screening Results, E. coli (fold increase in extracellular AK activity)” value is recorded as 1.2. In addition, the “AK-based Prestwick Library Screening Results, E. faecium (fold increase in extracellular AK activity)” value in assay [5] (planktonic, […]) came out at 1.0. Moreover, in assay [6] (planktonic, […]), the “AK-based Prestwick Library Screening Results, A. baumannii (fold increase in extracellular AK activity)” value is given as 1.3. The “AK-based Prestwick Library Screening Results, K. pneumoniae (fold increase in extracellular AK activity)” value in assay [7] (planktonic, […]) was 1.2.

For `Nc1nc2c(ncn2COCCO)c(=O)[nH]1` [Acyclovir], the fold induction at 50 µM in assay [1] (setting [15]) stood at 0.3; in assay [2] (setting [16]), 0.4; in assay [3] (setting [17]), 0.5; in assay [4] (setting [18]), 0.5; in assay [5] (setting [19]), 0.9; in assay [6] (setting [20]), 0.4. Moreover, the fold induction at 50 µM in assay [7] (setting [21]) amounted to 0.5.
